Structures can show the parent of a compound that is named as a salt.
Legend:
KRAS-G12D and SOS1 = molecular target: T1, KRAS-G12D and SOS1 (Homo sapiens, UniProt P01116, G12D); experiment: Inhibition of KRAS-G12D/SOS1 binding (Cisbio binding kit, 665/615 ratio), Effect Embodiment A; conditions: read-out: GTP-KRAS-G12D:SOS1 IC50
T1 construct: purchased
In short: (§1)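 Compounds are tested over eleven threefold dilution steps in duplicate, with final DMSO at 1%.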

KRAS_G12D and cRAF = molecular target: T2, KRAS_G12D and cRAF (Homo sapiens, UniProt P01116, G12D); experiment: Inhibition of KRAS_G12D/cRAF binding (Cisbio binding kit, 665/615 ratio), Effect Embodiment B; conditions: read-out: GTP-KRAS-G12D:CRAF IC50
T2 construct: purchased
T2 sequence (P01116 1-188 isoform P01116-2 G12D): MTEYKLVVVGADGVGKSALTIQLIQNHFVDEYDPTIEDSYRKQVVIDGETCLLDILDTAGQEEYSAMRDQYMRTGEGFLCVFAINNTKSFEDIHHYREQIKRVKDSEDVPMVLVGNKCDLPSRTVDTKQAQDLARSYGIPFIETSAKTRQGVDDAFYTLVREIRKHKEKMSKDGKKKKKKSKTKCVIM
In short: as §1

KRAS_WT and SOS1 = molecular target: T3, KRAS_WT and SOS1 (Homo sapiens, UniProt P01116); experiment: Inhibition of KRAS_WT/SOS1 binding (Cisbio binding kit, 665/615 ratio), Effect Embodiment C; conditions: read-out: GTP-KRAS-WT:SOS1 IC50
T3 construct: purchased
T3 sequence (P01116 1-188 isoform P01116-2): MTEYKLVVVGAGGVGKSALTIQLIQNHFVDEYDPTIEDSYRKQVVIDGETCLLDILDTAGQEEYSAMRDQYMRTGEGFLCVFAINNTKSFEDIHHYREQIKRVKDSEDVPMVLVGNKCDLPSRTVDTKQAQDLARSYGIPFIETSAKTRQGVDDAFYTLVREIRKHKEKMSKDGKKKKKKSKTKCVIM
Experimental: The inhibitory ability of small molecule compounds on the binding activity of KRAS_WT and SOS1 was examined by a drug screening system based on the combination of KRAS_WT and SOS1.
Similarly, the first dilution point of the compound to be tested was its storage solution, and the solution was 3-fold diluted, with 11+0 points of dilution. Echo was used to transfer 0.2 μL gradient diluted solution of the compounds into a 384-well plate, with 2 duplicated wells for each compound, and the final concentration of DMSO was 1%. The solution was centrifuged for 1 min at 1000 rpm/min.
IC50 of the compounds was fitted by Graphpad Prism 8 nonlinear regression equation: […]
The IC50 (half inhibitory concentration) of the compound was obtained by using the following nonlinear fitting formula: […]

T1 sequence (P01116 1-188 isoform P01116-2 G12D): as the sequence (P01116 1-188 isoform P01116-2 G12D) above

Structure (SMILES) | IC50 (KRAS-G12D and SOS1) [nM] | IC50 (KRAS_G12D and cRAF) [nM] | IC50 (KRAS_WT and SOS1) [nM]
CCC(COc1nc(N2CC3CCC(C2)N3)c2cc(Cl)c(-c3cc(O)cc4ccccc34)c(F)c2n1)CN1C2CCC1COC2 (single isomer, unassigned) [Compound 201a, (4S or 4R)-4-(2-((2R or 2S)-2-(3-oxa-8-azabicyclo[3.2.1]octan-8-ylmethyl)butoxy)-4-((1R,5S)-3,8-diazabicyclo[3.2.1]octan-3-yl)-6-chloro-8-fluoroquinazolin-7-yl)naphthalen-2-ol formate] | 29 | 23.2 | 1040
CC(C)(COc1nc(N2CC3CCC(C2)N3)c2cc(Cl)c(-c3cc(O)cc4ccccc34)c(F)c2n1)CN1C2CCC1COC2 (single isomer, unassigned) [Compound 120, 4-((7S or R)-2-(3-(3-oxa-8-azabicyclo[3.2.1]octan-8-yl)-2,2-dimethylpropoxy)-4-((1R,5S)-3,8-diazabicyclo[3.2.1]octan-3-yl)-6-chloro-8-fluoroquinazolin-7-yl)naphthalen-2-ol dihydrochloride] | 36.5 | 72.7 | 2670
C[C@@H]1C[C@@H](COc2nc(N3CC4CCC(C3)N4)c3cc(Cl)c(-c4cc(O)cc5ccccc45)c(F)c3n2)N(C)C1 (single isomer, unassigned) [Compound 171, (R or S)-4-(4-((1R,5S)-3,8-diazabicyclo[3.2.1]octan-3-yl)-6-chloro-2-((2S,4R)-1.4-dimethylpyrrolidin-2-yl)methoxy)-8-fluoroquinazolin-7-yl)naphthalen-2-ol dihydrochloride] | 24.8 | 60.4 | 395
Oc1cc(Cl)c(C2CC2)c(-c2c(Cl)cc3c(N4CC5CCC(C4)N5)nc(OC[C@@]45CCCN4C[C@H](F)C5)nc3c2F)c1 (single isomer, unassigned) [Compound 198b, 3-((S or R)-4-((1R,5S)-3,8-diazabicyclo[3.2.1]octan-3-yl)-6-choro-8-fluoro-2-((2R,7aS)-2-fluorotetrahydro-1H-pyrrolin-7a(5H)-yl)methoxy)quinazolin-7-yl)-5-chloro-4-cyclopropylphenol formate] | 54.1 | 38.5 | 105
CN(C)CC(C)(C)COc1nc(N2CC3CCC(C2)N3)c2cc(Cl)c(-c3cc(O)cc4ccccc34)c(F)c2n1 (single isomer, unassigned) [Compound 118, 4-((S or R)-4-((1R,5S)-3,8-diazabicyclo[3.2.1]octan-3-yl)-6-chloro-2-(3-(dimethylamino)-2,2-dimethylpropoxy)-8-fluoroquinazolin-7-yl)naphthalen-2-ol dihydrochloride] | 19.5 | 53.7 | 2410
CN1C[C@@H]2C[C@@H]2[C@H]1COc1nc(N2CC3CCC(C2)N3)c2cnc(-c3cc(O)cc4ccccc34)c(F)c2n1 [Compound 140, 4-(4-((1R,5S)-3,8-diazabicyclo[3.2.1]octan-3-yl)-8-fluoro-2-((1S,2S,5R)-3-methyl-3-azabicyclo[3.1.0]hexan-2-yl)methoxy)pyridin[4,3-d]pyrimidin-7-yl)naphthalen-2-ol dihydrochloride] | 32.8 | 95.7 | 1360
CN1CCC[C@H]1COc1nc(N2CCN(C(=O)CN)[C@@H](CC#N)C2)c2cc(Cl)c(-c3cc(O)cc4ccccc34)c(F)c2n1 (single isomer, unassigned) [Compound 155, 2-((S)-4-((S or R)-6-chloro-8-fluoro-7-(3-hydroxynaphthalen-1-yl)-2-((S)-1-methylpyrrolidine-2-yl)methoxy)quinazolin-4-yl)-1-glycylpiperazin-2-yl)acetonitrile ditrifluoroacetate] | 78.8 | 312 | 243
C[C@@H](COc1nc(N2CC3CCC(C2)N3)c2cc(Cl)c(-c3cc(O)cc4ccccc34)c(F)c2n1)CN(C)C (single isomer, unassigned) [Compound 203, 4-((S or R)-4-((1R,5S)-3,8-diazabicyclo[3.2.1]octan-3-yl)-6-chloro-2-((R)-3-(dimethylamino)-2-methylpropoxy)-8-fluoroquinazolin-7-yl)naphthalen-2-ol diformate] | 19.8 | 33.9 | 893
CCNCCCOc1nc(N2CC3CCC(C2)N3)c2cc(Cl)c(-c3cc(O)cc4ccccc34)c(F)c2n1 (single isomer, unassigned) [Compound 105, dihydrochloride] | 22.4 | 185 | 3040
CC(C)N1CC2CCC(C1)N2CCCOc1nc(N2CC3CCC(C2)N3)c2cc(Cl)c(-c3cc(O)cc4ccccc34)c(F)c2n1 (single isomer, unassigned) [Compound 244, 4-((7S or 7R)-4-((1R,5S)-3,8-diazacyclo[3.2.1]octan-3-yl)-6-chloro-8-fluoro-2-(3-(3-isopropyl-3,8-diazacyclo[3.2.1]octan-8-yl)propoxy)quinazolin-7-yl)naphthalen-2-ol diformate] | 48.5 | 260 | 3340

Other lines, results leading:

IC50 (KRAS-G12D and SOS1) [nM] | IC50 (KRAS_G12D and cRAF) [nM] | IC50 (KRAS_WT and SOS1) [nM] | Structure (SMILES)
19.3 | 62.7 | 658 | Oc1cc(-c2c(Cl)cc3c(N4CC5CCC(C4)N5)nc(OC[C@@H]4CCCN4CC4CC4)nc3c2F)c2ccccc2c1 [Compound 172, 4-(4-((1R,5S)-3,8-diazabicyclo[3.2.1]octan-3-yl)-6-chloro-2-((S)-1-(cyclopropylmethyl)pyrrolidin-2-yl)methoxy)-8-fluoroquinazolin-7-yl)naphthalen-2-ol dihydrochloride]
9.86 | 11.4 | 179 | CCc1cccc2cc(O)cc(-c3c(F)cc4c(N5CC6CCC(C5)N6)nc(OCCCN5C6CCC5COC6)nc4c3F)c12 (single isomer, unassigned) [Compound 271a, 4-((7S or 7R)-2-(3-(3-oxa-8-azabicyclo[3.2.1]octan-8-yl)propoxy)-4-((1R,5S)-3,8-diazabicyclo[3.2.1]octan-3-yl)-6,8-difluoroquinazolin-7-yl)-5-ethylnaphthalen-2-ol diformate]
14.5 | 14.4 | 160 | Oc1cc(-c2c(Cl)cc3c(N4CC5CCC(C4)N5)nc(OCC4(CN5C6CCC5COC6)CC4)nc3c2F)c2ccccc2c1 (single isomer, unassigned) [Compound 119, 4-((7S or R)-2-((1-((3-oxa-8-azabicyclo[3.2.1]octan-8-yl)methyl)cyclopropyl)methoxy)-4-((1R,5S)-3,8-diazabicyclo[3.2.1]octan-3-yl)-6-chloro-8-fluoroquinazolin-7-yl)naphthalen-2-ol formate]
11.8 | 5.79 | 200 | C[C@@H](COc1nc(N2CC3CCC(C2)N3)c2cc(Cl)c(-c3cc(O)cc4ccc(F)cc34)c(F)c2n1)CN1C2CCC1COC2 (single isomer, unassigned) [Compound 234a, 4-((7S or 7R)-2-((2R)-3-(3-oxa-8-azabicyclo[3.2.1]octan-8-yl)-2-methylpropoxy)-4-((1R,5S)-3,8-diazabicyclo[3.2.1]octan-3-yl)-6-chloro-8-fluoroquinazolin-7-yl)-6-fluoronaphthalen-2-ol diformate]
17.8 | 17.8 | 2070 | C[C@@H](COc1nc(N2C[C@H]3CC[C@@H](C2)N3)c2cc(Cl)c(-c3cc(O)cc4ccccc34)c(F)c2n1)CN1[C@@H]2CCC[C@H]1COC2 (single isomer, unassigned) [Compound 210, (S or R) 4-(2-((R)-3-((1R,5S)-3-oxa-9-azabicyclo[3.3.1]nonan-9-yl)-2-methylpropoxy)-4-((1R,5S)-3,8-diazabicyclo[3.2.1]octan-3-yl)-6-chloro-8-fluoroquinazolin-7-yl)naphthalen-2-ol diformate]
18.9 | 15.6 | 291 | Oc1cc(-c2c(Cl)cc3c(N4CC5CCC(C4)N5)nc(OCC4(CN5CCCC5)CC4)nc3c2F)c2ccccc2c1 (single isomer, unassigned) [Compound 97, 4-((S or R)-4-((1R,5S)-3,8-diazabicyclo[3.2.1]octan-3-yl)-6-chloro-8-fluoro-2-((1-(pyrrolidin-1-ylmethyl)cyclopropyl)methoxy)quinazolin-7-yl)naphthalen-2-ol]
16 | 30.5 | 394 | C[C@@H]1C[C@@H](COc2nc(N3CC4CCC(C3)N4)c3cnc(-c4cc(O)cc5ccccc45)c(F)c3n2)N(C)C1 [Compound 142, 4-(4-((1R,5S)-3,8-diazabicyclo[3.2.1]octan-3-yl)-2-((2S,4R)-1,4-methylpyrrolidin-2-yl)methoxy)-8-fluoropyridinyl[4,3-d]pyrimidin-7-yl)naphthalen-2-ol diformate]
13.2 | 18.6 | 1350 | CO[C@@H]1C[C@H]2CC[C@@H](C1)N2C[C@@H](C)COc1nc(N2CC3CCC(C2)N3)c2cc(Cl)c(-c3cc(O)cc4ccccc34)c(F)c2n1 (single isomer, unassigned) [Compound 224, 4-((S or R)-4-((1R,5S)-3,8-diazabicyclo[3.2.1]octan-3-yl)-6-chloro-8-fluoro-2-((R)-3-((1R,3S,5S)-3-methoxy-8-azabicyclo[3.2.1]octan-8-yl)-2-methylpropoxy)quinazolin-7-yl)naphthalen-2-ol diformate]
